One molecule from ChEMBL document CHEMBL6127068, “Discovery of novel nitrofuran PROTAC-like compounds as dual inhibitors and degraders targeting STING” (Eur J Med Chem, 2024) can be followed below.

One may read the DC50 as the midpoint of the concentration-degradation curve.

Active and inactive are the calls of the source. The rule behind the calls is not given here.

Assay [1] concerns Mus musculus. Briefly: Anti-inflammatory activity against cisplatin-induced acute kidney injury C57BL/6J mouse model assessed as decrease in kidney damage at 25 to 50 mg/kg by Hematoxylin-Eosin staining based microscopic analysis. Format: functional, organism-based. To be noted: dose 25-50 mg/kg.
For assay [2], the target named is T1, Protein cereblon/Stimulator of interferon genes protein (Mus musculus) (UniProt Q3TBT3+Q8C7D2). In words: In vivo inhibition of STING signaling pathway in C57BL/6J mouse assessed as inhibition of cisplatin-induced ISG15 mRNA expression in kidney at 25 to 50 mg/kg by qPCR analysis. Format: functional, organism-based. To be noted: dose 25-50 mg/kg. A general note: Quantitative PCR measures a nucleic acid by following its amplification.

In assay [3] the target is T2, Protein cereblon/Stimulator of interferon genes protein (Homo sapiens, UniProt Q96SW2+Q86WV6). In words: PROTAC activity at CRBN/STING in human THP-1 cells assessed as induction of STING degradation at 10 uM measured after 9 hrs by western blot analysis. The assay is classed as cell-based.
Target sequence in this assay (Q86WV6 whole entry, looked up): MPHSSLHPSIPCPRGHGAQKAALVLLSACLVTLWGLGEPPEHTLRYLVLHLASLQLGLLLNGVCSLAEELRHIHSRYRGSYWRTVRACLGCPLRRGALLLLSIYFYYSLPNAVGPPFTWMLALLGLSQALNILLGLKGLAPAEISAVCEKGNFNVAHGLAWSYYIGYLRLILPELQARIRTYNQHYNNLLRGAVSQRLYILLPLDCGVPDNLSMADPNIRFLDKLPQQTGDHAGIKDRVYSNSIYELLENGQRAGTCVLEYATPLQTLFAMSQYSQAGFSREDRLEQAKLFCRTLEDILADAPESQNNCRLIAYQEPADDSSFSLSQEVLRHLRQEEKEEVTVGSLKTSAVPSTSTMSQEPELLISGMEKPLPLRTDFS
Target sequence in this assay (Q96SW2 whole entry, looked up): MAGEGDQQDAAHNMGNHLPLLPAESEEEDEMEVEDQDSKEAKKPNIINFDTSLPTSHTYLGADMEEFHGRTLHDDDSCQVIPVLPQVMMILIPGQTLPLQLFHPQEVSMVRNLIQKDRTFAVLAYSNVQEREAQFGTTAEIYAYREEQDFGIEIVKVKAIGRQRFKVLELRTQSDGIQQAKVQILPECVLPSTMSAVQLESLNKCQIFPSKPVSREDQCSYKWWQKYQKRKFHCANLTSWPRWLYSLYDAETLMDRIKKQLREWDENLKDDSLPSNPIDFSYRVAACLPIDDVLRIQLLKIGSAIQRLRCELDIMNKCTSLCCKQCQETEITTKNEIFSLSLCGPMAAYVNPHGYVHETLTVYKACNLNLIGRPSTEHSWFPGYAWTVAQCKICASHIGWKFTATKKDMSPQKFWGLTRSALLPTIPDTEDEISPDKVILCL
For assay [4], the target named is T3, Stimulator of interferon genes protein (Mus musculus) (UniProt Q3TBT3).
T3 sequence (whole entry): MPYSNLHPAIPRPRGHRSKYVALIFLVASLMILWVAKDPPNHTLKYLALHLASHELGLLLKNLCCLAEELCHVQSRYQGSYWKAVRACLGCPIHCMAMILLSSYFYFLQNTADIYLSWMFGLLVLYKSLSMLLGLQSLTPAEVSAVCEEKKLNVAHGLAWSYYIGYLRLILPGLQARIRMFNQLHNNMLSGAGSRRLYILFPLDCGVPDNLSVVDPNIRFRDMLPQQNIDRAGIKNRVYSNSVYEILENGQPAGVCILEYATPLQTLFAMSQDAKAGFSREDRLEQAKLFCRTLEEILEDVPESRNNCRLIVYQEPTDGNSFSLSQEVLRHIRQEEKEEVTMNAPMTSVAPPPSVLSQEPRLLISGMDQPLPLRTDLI
Briefly: Inhibition of STING in mouse RAW264.7 cells assessed as reduction in DMXAA-induced TNF-alpha mRNA expression at 5 to 20 uM pretreated for 1 hr followed by stimulation with DMXAA for 24 hrs by qRT-CPR analysis. Format: cell-based. To be noted: dose 5-20 µM, time 25.0 hrs.

Assay [5] concerns THP-1. In words: PROTAC activity at CRBN/Akt in human THP-1 cells assessed as induction of Akt degradation at 2.5 to 40 uM incubated for 24 hrs by western blot analysis. Format: cell-based. To be noted: dose 2.5-40 µM. (Immunoblotting shows a protein as a band on a membrane.)
The target in assay [6] is T1, Protein cereblon/Stimulator of interferon genes protein (Mus musculus). Briefly: In vivo inhibition of STING signaling pathway in C57BL/6J mouse assessed as inhibition of cisplatin-induced IFN-beta mRNA expression in kidney at 25 to 50 mg/kg by qPCR analysis. The note with it: dose 25-50 mg/kg. Format: functional, organism-based.
In assay [7] the target is T2, Protein cereblon/Stimulator of interferon genes protein. In words: PROTAC activity at CRBN/STING in human THP-1 cells assessed as induction of STING degradation at 3 uM pretreated with lysosome inhibitor, bafilomycin for 1 hr followed by incubation with compound for 24 hrs by western blot analysis. Format: cell-based.
Target sequence in this assay (Q86WV6 whole entry, looked up): as the sequence (Q86WV6 whole entry, looked up) above
Target sequence in this assay (Q96SW2 whole entry, looked up): as the sequence (Q96SW2 whole entry, looked up) above
The test system of assay [8] is Mus musculus. In words: Anti-inflammatory activity against cisplatin-induced acute kidney injury C57BL/6J mouse model assessed as decrease in plasma uric acid level at 25 to 50 mg/kg. The note with it: dose 25-50 mg/kg. Format: functional, organism-based.
The target of assay [9] is T2, Protein cereblon/Stimulator of interferon genes protein. In words: PROTAC activity at CRBN/STING in human THP-1 cells assessed as induction of STING degradation incubated for 24 hrs by western blot analysis. Format: cell-based.
Target sequence in this assay (Q96SW2 whole entry): as the sequence (Q96SW2 whole entry, looked up) above
Target sequence in this assay (Q86WV6 whole entry): as the sequence (Q86WV6 whole entry, looked up) above
Assay [10] has as its system THP-1. Briefly: Effect on STING mRNA expression in human THP-1 cells at 10 uM incubated for 12 to 48 hrs by qRT-PCR analysis. The assay is classed as functional, cell-based. To be noted: time 12-48 hrs.
Assay [11] relates to Mus musculus. Briefly: Anti-inflammatory activity against cisplatin-induced acute kidney injury C57BL/6J mouse model assessed as decrease in plasma creatinine level at 25 to 50 mg/kg. Format: functional, organism-based. The note with it: dose 25-50 mg/kg.
For assay [12], the target named is T2, Protein cereblon/Stimulator of interferon genes protein. In words: PROTAC activity at CRBN/STING in human THP-1 cells assessed as induction of STING degradation at 3 uM pretreated with proteasome inhibitor, MG132 for 1 hr followed by incubation with compound for 24 hrs by western blot analysis. The assay is classed as cell-based.
Target sequence in this assay (Q86WV6 whole entry, looked up): as above
Target sequence in this assay (Q96SW2 whole entry, looked up): as the sequence (Q96SW2 whole entry, looked up) above
Assay [13] has the same target. Briefly: PROTAC activity at CRBN/STING in human THP-1 cells assessed as induction of STING degradation at 10 uM incubated for 24 hrs followed by replacement with fresh medium without compound and measured after 24 hrs by western bot analysis. Format: cell-based.
Target sequence in this assay (Q86WV6 whole entry, looked up): as the sequence (Q86WV6 whole entry, looked up) above
Target sequence in this assay (Q96SW2 whole entry, looked up): as the sequence (Q96SW2 whole entry, looked up) above
Assay [14] deals with T3, Stimulator of interferon genes protein (Mus musculus). Briefly: Inhibition of STING in mouse RAW264.7 cells assessed as reduction in DMXAA-induced IL-6 mRNA expression at 5 to 20 uM pretreated for 1 hr followed by stimulation with DMXAA for 24 hrs by qRT-CPR analysis. The assay is classed as cell-based. To be noted: dose 5-20 µM, time 25.0 hrs.
For assay [15], the target named is T2, Protein cereblon/Stimulator of interferon genes protein. In words: PROTAC activity at CRBN/STING in human THP-1 cells assessed as inhibition of cGAMP-induced IL-6 mRNA expression incubated for 1 hr followed by stimulation with cGAMP for 24 hrs by qRT-PCR analysis. Format: cell-based. The note with it: dose 5-20 µM, time 25.0 hrs.
Target sequence in this assay (Q86WV6 whole entry, looked up): as the sequence (Q86WV6 whole entry, looked up) above
Target sequence in this assay (Q96SW2 whole entry, looked up): as the sequence (Q96SW2 whole entry, looked up) above
Assay [16] deals with T1, Protein cereblon/Stimulator of interferon genes protein (Mus musculus). In words: In vivo inhibition of STING signaling pathway in C57BL/6J mouse assessed as inhibition of cisplatin-induced ISG56 mRNA expression in kidney at 25 to 50 mg/kg by qPCR analysis. The assay is classed as functional, organism-based. To be noted: dose 25-50 mg/kg.
Assay [17] has as its target T2, Protein cereblon/Stimulator of interferon genes protein. Briefly: PROTAC activity at CRBN/STING in human THP-1 cells assessed as inhibition of cGAMP-induced ISG56 mRNA expression incubated for 1 hr followed by stimulation with cGAMP for 24 hrs by qRT-PCR analysis. Format: cell-based. The note with it: dose 5-20 µM, time 25.0 hrs.
Target sequence in this assay (Q86WV6 whole entry, looked up): as the sequence (Q86WV6 whole entry, looked up) above
Target sequence in this assay (Q96SW2 whole entry, looked up): as the sequence (Q96SW2 whole entry, looked up) above
Assay [18] deals with Mus musculus. Briefly: Anti-inflammatory activity against cisplatin-induced acute kidney injury C57BL/6J mouse model assessed as decrease in plasma BUN level at 25 to 50 mg/kg. Format: functional, organism-based. To be noted: dose 25-50 mg/kg.
In assay [19] the target is T3, Stimulator of interferon genes protein (Mus musculus). Briefly: Inhibition of STING in mouse RAW264.7 cells assessed as reduction in DMXAA-induced CXCL10 mRNA expression at 5 to 20 uM pretreated for 1 hr followed by stimulation with DMXAA for 24 hrs by qRT-CPR analysis. The assay is classed as cell-based. The note with it: dose 5-20 µM, time 25.0 hrs.
In assay [20] the target is T2, Protein cereblon/Stimulator of interferon genes protein. Briefly: PROTAC activity at CRBN/STING in human THP-1 cells assessed as induction of STING degradation at 10 uM by western blot analysis. The note with it: time 3-36 hrs, TDE = time-dependent effect. Format: cell-based.
For assay [21] the target is unchanged. In words: PROTAC activity at CRBN/STING in human THP-1 cells assessed as inhibition of cGAMP-induced TBK1 phosphorylation incubated for 24 hrs followed by stimulation with cGAMP for 24 hrs by western blot analysis. Format: cell-based. To be noted: dose 0.3-20 µM, time 48.0 hrs.

T1 sequence (Q8C7D2 whole entry, looked up, one chain of several): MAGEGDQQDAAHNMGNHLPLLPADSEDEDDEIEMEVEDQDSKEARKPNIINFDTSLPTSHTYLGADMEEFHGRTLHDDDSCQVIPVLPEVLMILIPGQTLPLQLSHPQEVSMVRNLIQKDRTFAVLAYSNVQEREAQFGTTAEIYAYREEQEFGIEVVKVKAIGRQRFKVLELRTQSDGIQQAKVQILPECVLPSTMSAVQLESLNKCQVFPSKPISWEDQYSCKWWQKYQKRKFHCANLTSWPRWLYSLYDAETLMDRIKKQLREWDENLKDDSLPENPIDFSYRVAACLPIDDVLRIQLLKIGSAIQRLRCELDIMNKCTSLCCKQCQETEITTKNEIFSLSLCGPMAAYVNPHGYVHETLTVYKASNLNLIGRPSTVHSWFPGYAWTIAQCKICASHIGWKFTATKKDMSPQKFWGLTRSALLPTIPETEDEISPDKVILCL

For `O=C1CCC(N2C(=O)c3cccc(OCc4cn(CCCCCC(=O)OCCc5ccc(NC(=O)c6ccc([N+](=O)[O-])o6)cc5)nn4)c3C2=O)C(=O)N1` (stereo unspecified), the outcome in assay [1], in [3], in assay [8], in assay [11], in [12] and in assay [18] was Active. For the same molecule, the inhibition result in assay [2], in [6] and in assay [16] was “Active” each time. In addition, the inhibition result in assay [4], in assay [14] and in assay [19] was “Dose-Dependent Effect” throughout. For the same molecule, the result in assay [5], in [7], in assay [10] and in assay [13] was inactive. For the same molecule, in assay [9], the DC50 is 2580 nM. For the same molecule, the Activity result in [15] is “Dose-Dependent Effect”; in assay [17], “Dose-Dependent Effect”; in assay [20] it was “Tde”; in assay [21], “Dose-Dependent Effect”.
